Assay [1] relates to LPS-induced endotoxin shock. Kind of assay: Mouse endotoxin shock model. The assay is classed as in vivo, mice. The procedure:
The above results prompted us to explore the in vivo effect of RA-V on the NF-κB signaling pathway. We extended our study to the mouse endotoxin shock model, in which mice were intraperitoneally injected with LPS (10 mg/kg or 20 mg/kg) and evaluated for changes by examining physiological parameters induced by the inflammatory response.
First, the mice were intravenously injected with RA-V micelles (0.25 mg/kg body weight) or control micelles at three time points: 52, 28, and 4 h before they were intraperitoneally injected with phosphate-buffered saline (PBS) or LPS (10 mg/kg). One hour after LPS injection, we examined proinflammatory cytokines (IL-6 and TNF-α) production at the transcriptional and translational levels. […] As expected, after receiving the LPS injection, all of the control mice died within 36 h, whereas 60% of the RA-V-treated mice survived (Fig. 2d). To further confirm the in vivo effect of RA-V on the NF-κB pathway, we performed the endotoxin shock model on NF-κB-luciferase transgenic mice.
Fig. 2 RA-V prevents endotoxic shock and inhibits NF-κB activation in vivo. a–c RA-V prevents endotoxic shock in vivo. Mice (n = 6 per group) were intravenously injected with RA-V micelles (0.25 mg/kg body weight) or control micelles 52, 28, and 4 h before an intraperitoneal injection of LPS (10 mg/kg). One hour later, the relative levels of IL-6 and TNF-α mRNAs in the liver were assessed by quantitative RT-PCR (a), the serum IL-6 and TNF-α levels were quantified by ELISA (b), and the expression of p65 and IκBα phosphorylation in the liver were measured by immunoblot analysis c. d RA-V improved animal survival. Mice (n = 20 per group) were intravenously injected with RA-V micelles (0.25 mg/kg body weight) or control micelles 52, 28, and 4 h before intraperitoneal injection of LPS (20 mg/kg). Animal survival was recorded in 2–3 hours intervals. e RA-V inhibits NF-κB activation in vivo. The NF-κB-luc transgenic mice (n = 4 per group) were intravenously injected with RA-V micelles (0.25 mg/kg body weight) or control micelles 52, 28, and 4 h before intraperitoneal injection with LPS (10 mg/kg). NF-κB-luc transgenic mice were photographed at different time points and representative images are shown. The bioluminescent signals from all of the mice were detected and quantified. The data are presented as the means ± S.D. *, p < 0.05; **, p < 0.01

Assay [2] concerns p65 phosphorylation, IκBα phosphorylation and IκBα degradation. Kind of assay: Western blot of TNF-α-induced NF-κB-associated proteins. The settings on record: HEK293T or HeLa; RA-V 24 h, 10 ng/mL TNF-α 10 min. The assay is classed as cell-based. The procedure:
Fig. 1 RA-V inhibits TNF-α- and LPS-induced activation of NF-κB. a Chemical structure of RA-V. b RA-V inhibited the NF-κB signaling pathway in a dose-dependent manner. HEK293T or HeLa cells were transfected with the 5 × κB-luciferase and pTK-Renilla reporters. Twenty-four hours after transfection, the cells were incubated with various concentrations of RA-V for 6 h, and then treated with 10 ng/mL TNF-α for 2 h before the luciferase activity assay and MTT assay. c RA-V reduced TNF-α-induced expression of NF-κB target genes. HEK293T or HeLa cells were treated with various concentrations of RA-V for 24 h and stimulated with 10 ng/mL TNF-α for 2 h. The expression of the NF-κB target genes, IL-8, MCP-1, and E-selectin was measured by quantitative RT-PCR and normalized to GADPH expression. d RA-V inhibited TNF-α-induced p65 phosphorylation, IκBα phosphorylation and IκBα degradation. HEK293T or HeLa cells were incubated with various concentrations of RA-V for 24 h and treated with 10 ng/mL TNF-α for 10 min. The cell lysates were prepared and subjected to western blot analysis with the indicated antibodies. e RA-V inhibited TNF-α-induced IL-8 production. […] The expression of IL-6 was measured. h RA-V inhibited LPS-induced p65 phosphorylation, IκBα phosphorylation. […] The protein expression was measured. i RA-V inhibited LPS-induced IL-6 production. […] The expression of IL-6 was measured. […]

A further assay deals with RAW264.7 cells. Kind of assay: LPS-induced NF-κB activation in RAW264.7 cells. Format: cell-based. The settings on record: 1 μg/mL LPS 3 h, dose-dependent. The protocol:
Fig. 1 RA-V inhibits TNF-α- and LPS-induced activation of NF-κB. a Chemical structure of RA-V. b RA-V inhibited the NF-κB signaling pathway in a dose-dependent manner. HEK293T or HeLa cells were transfected with the 5 × κB-luciferase and pTK-Renilla reporters. Twenty-four hours after transfection, the cells were incubated with various concentrations of RA-V for 6 h, and then treated with 10 ng/mL TNF-α for 2 h before the luciferase activity assay and MTT assay. c RA-V reduced TNF-α-induced expression of NF-κB target genes. HEK293T or HeLa cells were treated with various concentrations of RA-V for 24 h and stimulated with 10 ng/mL TNF-α for 2 h. The expression of the NF-κB target genes, IL-8, MCP-1, and E-selectin was measured by quantitative RT-PCR and normalized to GADPH expression. d RA-V inhibited TNF-α-induced p65 phosphorylation, IκBα phosphorylation and IκBα degradation. HEK293T or HeLa cells were incubated with various concentrations of RA-V for 24 h and treated with 10 ng/mL TNF-α for 10 min. The cell lysates were prepared and subjected to western blot analysis with the indicated antibodies. e RA-V inhibited TNF-α-induced IL-8 production. […] The expression of IL-6 was measured. h RA-V inhibited LPS-induced p65 phosphorylation, IκBα phosphorylation. […] The protein expression was measured. i RA-V inhibited LPS-induced IL-6 production. […] The expression of IL-6 was measured.

The mark [3] stands for this setting: RA-V micelles 0.25 mg/kg i.v. 52, 28, 4 h before LPS 10 mg/kg i.p., 1 h after LPS, n = 6.

Turning to RA-V, in assay [1] (setting [3]), the “IL-6 and TNF-α in the serum (ELISA)” value is reported as “reduced expression”; the “expression of IL-6 and TNF-α mRNAs in liver tissue” value is given as “significantly decreased”. In assay [1] (RA-V micelles 0.25 mg/kg i.v. 52, 28, 4 h before LPS 10 mg/kg i.p., immunoblot), the “phosphorylation of IκBα and p65 in liver tissue” value is given as “clearly inhibited”. For the same substance, the “survival of mice after lethal dose of LPS” value in assay [1] (RA-V micelles 0.25 mg/kg i.v. 52, 28, 4 h before LPS 20 mg/kg i.p., n = 20, all control mice died within 36 h) worked out at 60%. For the same substance, the “TNF-α-induced IκBα phosphorylation, IκBα degradation, and p65 phosphorylation” value in assay [2] is “dose-dependent inhibitory effects”. The “LPS-induced IL-6 production, IκBα phosphorylation and p65 phosphorylation” value in the assay on RAW264.7 cells is on record as “inhibited”.

The values are drawn from paper PMC6006164, “Natural cyclopeptide RA-V inhibits the NF-κB signaling pathway by targeting TAK1” (Cell Death & Disease, 2018).
